The assay has as its target T1, human PKCθ full length enzyme (Homo sapiens, UniProt Q04759).
T1 construct: human PKCθ full length enzyme (Panvera Catalog No. P2996); purchased Panvera P2996
The assay can be described thus: PKCθ IMAP Assay. The assay is classed as biochemical. Conditions: average value when one or more samples were tested; ATP 6 uM, PKCθ 1 nM. The protocol:
The materials used include the following: human PKCθ full length enzyme (Panvera Catalog No. P2996); substrate peptide: 5FAM-[…]-OH (Molecular Devices, RP7032); ATP (Sigma Cat # A2383); DTT (Pierce, 20291); 5× kinase reaction buffer (Molecular Devices, R7209); 5× binding buffer A (Molecular Devices, R7282), 5× binding buffer B (Molecular Devices, R7209); IMAP Beads (Molecular Devices, R7284); and 384-well plates (Corning Costar, 3710).
The reaction buffer was prepared by diluting the 5× stock reaction buffer and adding DTT to obtain a concentration of 3.0 mM. The binding buffer was prepared by diluting the 5× binding buffer A. A master mix solution was prepared using a 90% dilution of the reaction buffer containing 2×ATP (12 uM) and 2× peptide ([…]). […] The final concentration of compound was 2× and 10% DMSO. DMSO was added to the rest of the master mix to increase the concentration to 10%. 10 ul of the master mix containing 10% DMSO was added to the rest of the wells on the plate except the 2nd column. 20 ul was transferred from the first column to the 2nd column. The compounds were serially diluted in 2:1 ratio starting from the 2nd column. A 2× (2 nM) PKCθ solution was made in the reaction buffer. 10 ul of the PKCθ solution was added to every well to achieve these final concentrations: PKCθ—1 nM; ATP—6 uM; peptide—100 nM; DMSO—5%. Samples were incubated for 25 minutes at room temperature. The binding reagent was prepared by diluting the beads in 1× binding buffer to 800:1. 50 ul of the binding reagent was added to every well and incubated for 20 minutes. FP was measured using Envision2100 (PerkinElmer Life Sciences). Wells with no ATPs and wells with no enzymes were used as controls.

A value given as a limit tells only on which side of the number the result lay.

T1 sequence (Q04759 whole entry): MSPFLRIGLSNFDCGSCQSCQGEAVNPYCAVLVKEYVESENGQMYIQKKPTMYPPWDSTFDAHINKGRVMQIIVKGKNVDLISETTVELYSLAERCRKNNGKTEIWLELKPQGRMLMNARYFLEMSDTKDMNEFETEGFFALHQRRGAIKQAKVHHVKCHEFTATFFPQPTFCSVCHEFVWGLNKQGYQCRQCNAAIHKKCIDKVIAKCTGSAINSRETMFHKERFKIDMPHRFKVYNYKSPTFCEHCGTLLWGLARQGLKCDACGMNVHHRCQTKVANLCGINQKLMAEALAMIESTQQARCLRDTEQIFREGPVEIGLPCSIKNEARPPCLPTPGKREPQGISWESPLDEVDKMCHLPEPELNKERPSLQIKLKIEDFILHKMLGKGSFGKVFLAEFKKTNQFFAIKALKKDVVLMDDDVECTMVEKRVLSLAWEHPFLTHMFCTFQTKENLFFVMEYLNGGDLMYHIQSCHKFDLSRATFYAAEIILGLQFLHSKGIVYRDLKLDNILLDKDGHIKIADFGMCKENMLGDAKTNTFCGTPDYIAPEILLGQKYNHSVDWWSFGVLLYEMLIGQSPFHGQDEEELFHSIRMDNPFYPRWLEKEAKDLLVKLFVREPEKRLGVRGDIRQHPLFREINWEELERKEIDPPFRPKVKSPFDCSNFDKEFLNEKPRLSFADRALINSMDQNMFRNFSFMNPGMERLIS

As usually defined, the IC50 is the point on the concentration scale where inhibition reaches its midpoint. Lower therefore signals greater potency in that assay. For `N#Cc1cnc2sc(/C=C/C(N)=O)cc2c1Nc1ccc2[nH]ccc2c1` [Compound 292, (2E)-3-[5-cyano-4-(1H-indol-5-ylamino)thieno[2,3-b]pyridin-2-yl]acrylamide], 183 nM corresponded to half-maximal inhibition (IC50).

Compound `Cc1c(Nc2c(C#N)cnc3sc(-c4cnc5ccccc5c4)cc23)ccc2[nH]ccc12` [Compound 380, 4-[(4-methyl-1H-indol-5-yl)amino]-2-quinolin-3-ylthieno[2,3-b]pyridine-5-carbonitrile] showed an IC50 of 16 nM.

`Cc1c(Nc2c(C#N)cnc3sc(-c4cc5cc(CN(C)C)ccc5s4)cc23)ccc2[nH]ccc12` [Compound 467, 2-{5-[(dimethylamino)methyl]-1-benzothien-2-yl}-4-[(4-methyl-1H-indol-5-yl)amino]thieno[2,3-b]pyridine-5-carbonitrile] showed an IC50 of 171 nM.

Regarding `Cc1c(Nc2c(C#N)cnc3sc(-c4cccc(C(=O)N(C)CCN(C)C)c4)cc23)ccc2[nH]ccc12` [Compound 348, 3-{5-cyano-4-[(4-methyl-1H-indol-5-yl)amino]thieno[2,3-b]pyridin-2-yl}-N-[2-(dimethylamino)ethyl]-N-methylbenzamide], the IC50 stood at 18 nM.

For the compound `N#Cc1cnc2sc(-c3cccc(CN4CCCC4)c3)cc2c1Nc1ccc2[nH]ccc2c1` [Compound 159, 4-(1H-indol-5-ylamino)-2-[3-(pyrrolidin-1-ylmethyl)phenyl]thieno[2,3-b]pyridine-5-carbonitrile], the IC50 came out at 240 nM.

In the case of `CNS(=O)(=O)c1ccc(-c2cc3c(Nc4ccc5[nH]ccc5c4C)c(C#N)cnc3s2)cc1` [Compound 230, 4-{5-cyano-4-[(4-methyl-1H-indol-5-yl)amino]thieno[2,3-b]pyridin-2-yl}-N-methylbenzenesulfonamide], the half-inhibitory concentration (IC50) was determined as 9 nM.

Compound `N#Cc1cnc2sc(/C=C/c3ccc(C(F)(F)F)cc3)cc2c1Nc1ccc2[nH]ccc2c1` [Compound 408, 4-(1H-indol-5-ylamino)-2-{(E)-2-[4-(trifluoromethyl)phenyl]vinyl}thieno[2,3-b]pyridine-5-carbonitrile] registered an IC50 of 23500 nM.

For the compound `Cc1c(Nc2c(C#N)cnc3sc(/C=C/CCN4CCN(C)CC4)cc23)ccc2[nH]ccc12` [Compound 272, 4-[(4-methyl-1H-indol-5-yl)amino]-2-[(1E)-4-(4-methylpiperazin-1-yl)but-1-en-1-yl]thieno[2,3-b]pyridine-5-carbonitrile], inhibition was half-maximal at 45 nM (IC50).

`Cc1c(Nc2c(C#N)cnc3sc(-c4ccccc4CO)cc23)ccc2[nH]ccc12` [Compound 398, 2-[2-(hydroxymethyl)phenyl]-4-[(4-methyl-1H-indol-5-yl)amino]thieno[2,3-b]pyridine-5-carbonitrile] displayed an IC50 of 75 nM.

The compound `N#Cc1cnc2sc(/C=C/c3cccc(F)c3)cc2c1Nc1ccc2[nH]ccc2c1` [Compound 402, 2-[(E)-2-(3-fluorophenyl)vinyl]-4-(1H-indol-5-ylamino)thieno[2,3-b]pyridine-5-carbonitrile] returned an IC50 of 465 nM.

`CN(c1ccc2[nH]ccc2c1)c1c(C#N)cnc2sc(-c3ccccc3)cc12` [Compound 122, 4-[1H-indol-5-yl(methyl)amino]-2-phenylthieno[2,3-b]pyridine-5-carbonitrile] displayed an IC50 above 55000 nM.

In the case of `COCCNCc1cccc(-c2cc3c(Nc4ccc5[nH]ccc5c4)c(C#N)cnc3s2)c1` [Compound 165, 4-(1H-indol-5-ylamino)-2-(3-{[(2-methoxyethyl)amino]methyl}phenyl)thieno[2,3-b]pyridine-5-carbonitrile], the IC50 came out at 110 nM.

Regarding `Cc1c(Nc2c(C#N)cnc3sc(-c4cccc(C(=O)N(C)C)c4)cc23)ccc2[nH]ccc12` [Compound 353, 3-{5-cyano-4-[(4-methyl-1H-indol-5-yl)amino]thieno[2,3-b]pyridin-2-yl}-N,N-dimethylbenzamide], half-maximal inhibition (IC50) required 36 nM.

Consider `Cc1ccc(/C=C/c2cc3c(Nc4ccc5[nH]ccc5c4)c(C#N)cnc3s2)cc1` [Compound 406, 4-(1H-indol-5-ylamino)-2-[(E)-2-(4-methylphenyl)vinyl]thieno[2,3-b]pyridine-5-carbonitrile], for which half-maximal inhibition (IC50) was put at 12000 nM.

For `N#Cc1cnc2sc(-c3cccc(CN)c3)cc2c1Nc1ccc2[nH]ccc2c1` [Compound 196, 2-[3-(aminomethyl)phenyl]-4-(1H-indol-5-ylamino)thieno[2,3-b]pyridine-5-carbonitrile], the IC50 is 38 nM.

Turning to `N#Cc1cnc2sc(CN3CCN(c4ccccc4)CC3)cc2c1Nc1ccc2[nH]ccc2c1` [Compound 269, 4-(1H-indol-5-ylamino)-2-[(4-phenylpiperazin-1-yl)methyl]thieno[2,3-b]pyridine-5-carbonitrile], the IC50 is 4030 nM.

As for `Cc1c(Nc2c(C#N)cnc3sc(-c4cc(F)cc(C(=O)N(C)C)c4)cc23)ccc2[nH]ccc12` [Compound 512, 3-{5-cyano-4-[(4-methyl-1H-indol-5-yl)amino]thieno[2,3-b]pyridin-2-yl}-5-fluoro-N,N-dimethylbenzamide], the IC50 is 38 nM.

Turning to `CNS(=O)(=O)c1ccc(-c2sc3ncc(C#N)c(Nc4ccc5[nH]ccc5c4C)c3c2C)cc1` [Compound 414, 4-{5-cyano-3-methyl-4-[(4-methyl-1H-indol-5-yl)amino]thieno[2,3-b]pyridin-2-yl}-N-methylbenzenesulfonamide], half-maximal inhibition (IC50) required 29 nM.

`Cc1c(Nc2c(C#N)cnc3sc(/C=C/CN4CCCC4)cc23)ccc2[nH]ccc12` [Compound 276, 4-[(4-methyl-1H-indol-5-yl)amino]-2-[(1E)-3-pyrrolidin-1-ylprop-1-en-1-yl]thieno[2,3-b]pyridine-5-carbonitrile] returned an IC50 of 23 nM. The IC50 values of the last two compounds are within 1.5-fold of each other.

For the compound `Cc1ccc(S(=O)(=O)n2ccc3c(Cl)c(Nc4c(C#N)cnc5sc(I)cc45)cnc32)cc1` [Compound 522, 4-({4-chloro-1-[(4-methylphenyl)sulfonyl]-1H-pyrrolo[2,3-b]pyridin-5-yl}amino)-2-iodothieno[2,3-b]pyridine-5-carbonitrile], half-maximal inhibition (IC50) was put at 14100 nM. Compared with the last compound, the IC50 is about 610-fold higher.

`Cc1c(Nc2c(C#N)cnc3sc(-c4ccc(C(=O)NCCN(C)C)cc4)cc23)ccc2[nH]ccc12` [Compound 349, 4-{5-cyano-4-[(4-methyl-1H-indol-5-yl)amino]thieno[2,3-b]pyridin-2-yl}-N-[2-(dimethylamino)ethyl]benzamide] came in with an IC50 of 16 nM.

`Cc1c(Nc2c(C#N)cnc3sc(/C=C/C(=O)N4CC[C@H](N(C)C)C4)cc23)ccc2[nH]ccc12` [Compound 301, 2-{(1E)-3-[(3S)-3-(dimethylamino)pyrrolidin-1-yl]-3-oxoprop-1-en-1-yl}-4-[(4-methyl-1H-indol-5-yl)amino]thieno[2,3-b]pyridine-5-carbonitrile] came in with an IC50 of 171 nM.

For `Cc1c(Nc2c(C#N)cnc3sc(/C=C/C(=O)N4CCOCC4)cc23)ccc2[nH]ccc12` [Compound 309, 4-[(4-methyl-1H-indol-5-yl)amino]-2-[(1E)-3-morpholin-4-yl-3-oxoprop-1-en-1-yl]thieno[2,3-b]pyridine-5-carbonitrile], half-maximal inhibition (IC50) was put at 53 nM.

In the case of `Cc1c(Nc2c(C#N)cnc3sc(-c4cnc(N5CCOCC5)nc4)cc23)ccc2[nH]ccc12` [Compound 330, 4-[(4-methyl-1H-indol-5-yl)amino]-2-(2-morpholin-4-ylpyrimidin-5-yl)thieno[2,3-b]pyridine-5-carbonitrile], the IC50 was determined as 69 nM.

`Cc1c(Nc2c(C#N)cnc3sc(-c4cccc(OC[C@@H](C)O)c4)cc23)ccc2[nH]ccc12` [Compound 482, 2-(3-{[(2R)-2-hydroxypropyl]-oxy}phenyl)-4-[(4-methyl-1H-indol-5-yl)amino]thieno[2,3-b]pyridine-5-carbonitrile] had an IC50 of 93 nM.

In turn, `Cc1c(Nc2c(C#N)cnc3sc(/C=C/CN4CCN(C)CC4)cc23)ccc2[nH]ccc12` [Compound 278, 4-[(4-methyl-1H-indol-5-yl)amino]-2-[(1E)-3-(4-methylpiperazin-1-yl)prop-1-en-1-yl]thieno[2,3-b]pyridine-5-carbonitrile] gave an IC50 of 12 nM. Compared with the last compound, the IC50 is about 7.8-fold lower.

Compound `Cc1c(Nc2c(C#N)cnc3sc(/C=C/C(=O)N4CCCC4)c(C)c23)ccc2[nH]ccc12` [Compound 302, 3-methyl-4-[(4-methyl-1H-indol-5-yl)amino]-2-[(1E)-3-oxo-3-pyrrolidin-1-ylprop-1-en-1-yl]thieno[2,3-b]pyridine-5-carbonitrile] returned an IC50 of 4 nM. Compared with the last compound, the IC50 is about 3-fold lower.

`CCN(CC)C(=O)/C=C/c1cc2c(Nc3ccc4[nH]ccc4c3C)c(C#N)cnc2s1` [Compound 306, (2E)-3-{5-cyano-4-[(4-methyl-1H-indol-5-yl)amino]thieno[2,3-b]pyridin-2-yl}-N,N-diethylacrylamide] registered an IC50 of 2 nM.

As for `CN(C)CCNC(=O)c1cccc(-c2cc3c(Nc4ccc5[nH]ccc5c4)c(C#N)cnc3s2)c1` [Compound 335, 3-[5-cyano-4-(1H-indol-5-ylamino)thieno[2,3-b]pyridin-2-yl]-N-[2-(dimethylamino)ethyl]benzamide], the IC50 was determined as 124 nM.

Values taken from US20070082880A1 (priority 2005, published 2007).
